Assay results: US20230017266A1, “Cyclooxygenase-2 Inhibition for the Treatment of SAA-high Asthma” (THE USA, AS REPRESENTED BY THE SECRETARY, DEPT. OF HEALTH …, priority 2019, published 2023)

System: NF-κB p65
Experiment: Phosphorylation of NF-κB p65 serine 529 in monocytes stimulated with HDL+SAA1 (flow cytometry)
Type: cell-based, human
Conditions: A438079 10 μM for 2 h, then HDL+SAA1 15 min; CD45+/CD14+/CD16− monocytes
Method: Phosphorylation of NF-κB p65. PBMCs isolated using Lymphoprep™ were resuspended in X-VIVO™ 15 serum-free hematopoietic cell medium (Lonza, Walkersville, Md.) and treated with the P2X7R antagonist, A438079 (10 ∝M), for 2 h prior to stimulation with HDL+SAA1 for 15 min^53. Subsequent cell processing was performed at 4° C. or on ice. Cells were washed with cold PBS, centrifuged at 300×g for 5 min, and reacted in a volume of 100 ∝l PBS for 15 min with the following antibodies; APC-Cy™7 mouse anti-human CD45 clone 2D1 (catalog #557833), FITC mouse anti-human CD14 clone M5E2 (catalog #555397), APC mouse anti-human CD16 clone B73.1 (catalog #561304), all form BD Biosciences (San Jose, Calif.) and cell viability dye (L34959, ThermoFisher Scientific, Frederick, Md.). […] Cells were washed with Phosflow Perm Buffer III and PBS, resuspended in PBS, and analyzed using a Fortessa analyzer equipped with 355, 407, 488, 532 and 640 nm LASER lines using FACS DIVA 8.0 software (BD Biosciences, San Jose, Calif.). […] Mean fluorescence intensity (MFI) was calculated and overlay histogram plots were generated to quantify phosphorylation of NF-κB p65 serine 529 among various treatment conditions.

SMILES: Clc1cccc(-c2nnnn2Cc2cccnc2)c1Cl [A438079]
- HDL+SAA1-mediated phosphorylation of p65 NF-κB: attenuated
